Experimental findings from ChEMBL document CHEMBL3393030, “Synthesis and properties of vitamin E analog-conjugated neomycin for delivery of RNAi drugs to liver cells” (Bioorg Med Chem Lett, 2015) are described below.

The nature of data set [1]: Binding affinity to self-complementary RNA-12mer duplex (5'-rCGCGAAUUCGCG-3')2 (unknown origin) assessed as melting temperature by […] assay (reference value: 61 degC). As to conditions: Homo sapiens; call rule not given here. On the technique in general: ITC needs no label: the signal is the heat of the interaction.
A short description of data set [2]: Drug uptake in mouse HePa1-6 cells assessed as red signal with Cy3 conjugate compound. It is filed as ADME, cell-based.
A further data set has as its system RH7777. As to the kind of experiment: Induction of RNAi activity in rat McA-RH7777 cells by LDLR assay. The format is cell-based.

The Tm is the temperature at which the thermal transition is half complete. For `CCCCCCCCCCCCCCCCOC(COC[C@]1(C)CCc2c(C)c(O)c(C)c(C)c2O1)OCc1cn(CCCCCCCCCCCCCCCCSC[C@H]2O[C@@H](O[C@@H]3[C@@H](O)[C@H](N)C[C@H](N)[C@H]3O[C@H]3O[C@H](CN)[C@@H](O)[C@H](O)[C@H]3N)[C@H](O)[C@@H]2O[C@H]2O[C@@H](CN)[C@@H](O)[C@H](O)[C@H]2N)nn1` (stereo partly drawn), the Tm in data set [1] is 72.8 °C. The Drug uptake entry in data set [2] is on record as “Active”. Further, in the data set on RH7777, the Activity result is listed as “Toxic”.

With `NC[C@@H]1O[C@H](O[C@H]2[C@@H](O)[C@H](O[C@@H]3[C@@H](O)[C@H](N)C[C@H](N)[C@H]3O[C@H]3O[C@H](CN)[C@@H](O)[C@H](O)[C@H]3N)O[C@@H]2CO)[C@H](N)[C@@H](O)[C@@H]1O`, the Tm in data set [1] was 64.2 °C.

`CCCCCCCCCCCCCCCCCC(=O)Oc1c(C)c(C)c2c(c1C)CC[C@@](C)(CCCCCCCCCOCc1cn(CCCCCCCCCCCCCCCCSC[C@H]3O[C@@H](O[C@@H]4[C@@H](O)[C@H](N)C[C@H](N)[C@H]4O[C@H]4O[C@H](CN)[C@@H](O)[C@H](O)[C@H]4N)[C@H](O)[C@@H]3O[C@H]3O[C@@H](CN)[C@@H](O)[C@H](O)[C@H]3N)nn1)O2`: the midpoint of thermal melting (Tm) in data set [1] came out at 65.6 °C.

Turning to `CCCCCCCC/C=C/CCCCCCCC(=O)Oc1c(C)c(C)c2c(c1C)CC[C@@](C)(CCCCCCCCCOCc1cn(CCCCCCCCCCCCCCCCSC[C@H]3O[C@@H](O[C@@H]4[C@@H](O)[C@H](N)C[C@H](N)[C@H]4O[C@H]4O[C@H](CN)[C@@H](O)[C@H](O)[C@H]4N)[C@H](O)[C@@H]3O[C@H]3O[C@@H](CN)[C@@H](O)[C@H](O)[C@H]3N)nn1)O2`, in data set [1], the melting temperature (Tm) came out at 66.8 °C. Besides, the Drug uptake result in data set [2] is “Active”. Besides, the Activity result with RH7777 is given as “Toxic”.
